Entries after “also recorded” stand apart in the source; their conditions may differ. Where two headings read alike, the source gives them in different places.
Experiments:
PAR2 = molecular target: T1, PAR2 (Homo sapiens, UniProt P55085); assay: PAR2 agonist inhibition (antagonism): intracellular Ca2+ release in HT29 cells; format: cell-based; parameters: endogenous in cells; host or cells: HT29 (human colorectal adenocarcinoma); conditions: other ligands; inhibiting Ca2+ release in HT29 cells; 30 min pre-incubation, agonist at EC80
T1 sequence (P55085 26-397): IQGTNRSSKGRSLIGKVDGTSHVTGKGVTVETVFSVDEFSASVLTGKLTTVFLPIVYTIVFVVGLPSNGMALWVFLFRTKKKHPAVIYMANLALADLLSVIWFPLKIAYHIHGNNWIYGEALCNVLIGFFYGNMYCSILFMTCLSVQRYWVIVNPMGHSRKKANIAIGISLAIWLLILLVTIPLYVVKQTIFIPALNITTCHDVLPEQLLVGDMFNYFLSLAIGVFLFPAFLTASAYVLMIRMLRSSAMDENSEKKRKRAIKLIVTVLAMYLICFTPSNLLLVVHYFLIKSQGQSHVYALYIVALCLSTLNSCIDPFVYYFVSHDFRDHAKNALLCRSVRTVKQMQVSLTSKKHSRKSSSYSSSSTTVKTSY
Experimental: Cells are seeded overnight in 96-well black walled, clear bottomed, plate at approximately 2×10^4 to 4×10^5 cells per well. […] The cells are then washed twice with HBSS and transferred to a Polarstar spectrofluorimeter (BMG, Durham N.C.).
The cells are prepared as outlined above then treated with the ‘putative’ antagonist 30 min prior to the addition of either trypsin or a synthetic agonist at a concentration equal to the agonists EC80.
The cells were then treated with 1 μM of the PAR2 agonist 2f-LIGRLO-NH2 (FIG. 2A, n=5) or 100 nM Trypsin (FIG. 2B, n=1). Each data point represents mean±SEM. Net changes in fluorescence were calculated as a percentage relative to the maximum response given 1 μM 2f-LIGRLO-NH2 or 100 nM Trypsin. Changes in fluorescence (% response) were plotted against logarithmic compound concentrations. The half maximal inhibitory concentration (IC50) values were derived from the dose response curve using a nonlinear regression curve in Graphpad Prism v5.

[1] = Pharmacokinetics, four consecutive daily oral doses; format: in vivo, Wistar rat; conditions: 10 mg/kg/day p.o. for 4 days
Experimental: (§1) Male Wistar rats were surgically implanted with a jugular vein catheter. Blood samples (heparinised) were collected from the catheter of an unanaesthetised, unrestrained rat, 5 min prior to PAR2 antagonist 52 administration (10 mg/kg p.o.) and 30 min, 1-6, 8 and 24 h post-administration. Rats not implanted with a catheter were given PAR2 antagonist 52 (10 mg/kg/day p.o.) four days consecutively (n=6). On the fifth day, plasma, cerebrospinal fluid (CSF), paw tissue and intraperitoneal adipose were collected for LCMS analysis.

[2] = tested on: λ-carrageenan-induced paw oedema; assay: λ-carrageenan-induced paw oedema; format: in vivo, Wistar rat; conditions: 10 mg/kg p.o., 1% λ-carrageenan intraplantar
Experimental: Methods were based on literature (Kelso E B et al., J Pharmacol Exp Ther 2006, 316(3):1017-24; Kawabata A et al., Peptides 2001, 23(6):1181-3). Male Wistar rats (n=4 per group) were given 10 mg/kg PAR2 antagonist 52 (p.o. via gavage in olive oil, 500 μL). Control animals received only olive oil. Thirty minutes later, λ-carrageenan was administered into the right hind paw pad (1% w/v in saline, 100 μL, i.pl, Left paw saline control). Paw thickness and width were measured at 1-6, 8 and 24 h (as above) and swelling expressed in area (mm^2) and plotted as % change from baseline of each individual paw.

[3] = tested on: 2furoyl-LIGRLO-NH2-induced paw oedema; assay: PAR2 agonist-induced paw oedema; format: in vivo, Wistar rat
Experimental: The methods used are based on those previously described (Kelso, E. B., et al. Arthritis Rheum 2007, 56, 765-71; Kelso, E. B., et al. J Pharmacol Exp Ther 2006, 316, 1017-24; and Vergnolle, N. J Immunol 1999, 163, 5064-9). Male Wistar rats (n=3 per group) are used. Briefly, rats are given either 5 or 10 mg/kg of a compound of the present invention (p.o. via gavage in olive oil, approx. 500 μL, weight adjusted). Control animals receive only olive oil (500 μL p.o.). Two hours later, the PAR2 agonist 2-furoyl-LIGRLO (350 μg/paw in saline, 100 μL) is injected into the plantar surface (i.pl.) of the right paw pad using a 30 G needle. The left paw acts as a control, receiving saline only. Paw thickness and width are measured after 30 minutes and hourly using digital calipers (World Precision Instruments, USA) and swelling is calculated in area (mm^2; thickness multiplied by width) and expressed as a percentage change from baseline of each individual paw.
Based on previous methods (Kelso E B et al., J Pharmacol Exp Ther 2006, 316(3):1017-24; Suen J Y et al., Br J Pharmacol 2011, doi: 10.1111/j.1476-5381.2011.01610.x.), PAR2 antagonist 52 (10 mg/kg s.c.; n=4), ENMD-1068 (100 mg/kg s.c.; n=4) or vehicle control (DMSO s.c.; n=2) were administered to male Wistar rats. Baseline paw thickness and width were measured using digital calipers (World Precision Instruments, USA) expressed in area (mm^2; thickness×width). Fifteen minutes later, 2Furoyl-LIGLRO-NH2 (350 μg/paw in 100 μL saline) was injected into of the right hind paw pad (intraplantar, i.pl.). The left hind paw acted as a control, receiving saline only. In a separate experiment, vehicle (500 μL olive oil) versus PAR2 antagonist 52 (10 mg/kg p.o. in 500 μL olive oil) only were administered orally to two groups of rats (4 per group). Two hours later, β-tryptase (human recombinant lung, 20 μg in 100 μL saline) was injected into the right hind paw pad (vehicle in left for control) of all animals in each group. In all experiments, paw swelling was measured and expressed in area (mm^2; thickness×width) and plotted as % change from baseline of each individual paw.

[4] = Pharmacokinetics, single oral dose; format: in vivo, Wistar rat
Experimental: as §1

[5] = male, Wistar, rat, 10 mg/kg oral gavage, plasma

CC[C@H](C)[C@@H](NC(=O)[C@H](CC1CCCCC1)NC(=O)c1ccno1)C(=O)N1CCC2(C=Cc3ccccc32)CC1 [Compound 52]
IC50 (PAR2): 1000 nM
Cp after fourth dose greater than the single-dose Cp at 24 h [1]: ~30%
concentration at 5 day ([1]; Wistar, rat, cerebrospinal fluid, oral, read-out: concentration in cerebral spinal fluid (none detected, LCMS/MS detection limit)): < 1.8 nM
Kp at 24 h ([1]; Wistar, rat, intraperitoneal adipose / plasma, oral, read-out: intraperitoneal adipose concentration as share of Cp at 24 h): ~0.3
concentration at 5 day ([1]; Wistar, rat, intraperitoneal adipose, oral, read-out: concentration in intraperitoneal adipose): 150 ± 20 nM
concentration at 24 h ([1]; Wistar, rat, plasma, oral, read-out: plasma concentration Cp at 24 h after the fourth dose): 500 ± 100 nM
λ-carrageenan-induced oedema reduced to [2]: 50%
paw oedema induced by other PAR2 agonists, e.g. trypsin, SLIGRL-NH2 and GB110 ([3]; recently found): inhibit paw oedema
paw oedema induced by 2furoyl-LIGRLO-NH2 ([3]; s.c., 52 10 mg/kg, ENMD-1068 100 mg/kg, agonist 350 μg/paw): reduced the paw oedema; also recorded: strongly reduce the paw oedema
presence in plasma after 24 h ([4]; 10 mg/kg oral gavage): No PAR2 antagonist 52 was present
concentration at 3 h ([4]; Wistar, rat, paw tissue homogenate, po, 3 h post administration, 10 mg/kg p.o., LCMS/MS, read-out: concentration in paw tissue homogenates): 35 nM
bioavailability ([4]; male, Wistar, rat, plasma, po, 10 mg/kg, 10 mg/kg p.o., from AUC 0-6 h, read-out: oral bioavailability F): 55%
Cmax [4, 5]: 1700 ± 400 nM
Tmax [4, 5]: 4 ± 0.6 h
half-life [4, 5]: 1.13 ± 0.13 h
